# Laboratory results: patent US11173139B2, “Method for extending lifespan delaying the onset of age-related disease” (priority 2004, dated 2021)
# Experiments:
# [1] = mouse, in vivo
# [2] = in vivo; cited from earlier work
# [3] = 21 diabetic patients, 100 mg to 1,000 mg (2-10 mg/kg); cited from earlier work
# Drosophila melanogaster = assay: D. melanogaster lifespan under stress (food vials not changed, microbial pathogens); format: in vivo; conditions: Example 5, flies under stress
# Excerpt: It is well known in the literature that calorie restricted animals survive stress better than the control animals fed an ad libitum diet. The data from the experiment were charted and are represented in FIG. 5.
# [4] = tested on: Drosophila melanogaster (Vestigal type); assay: D. melanogaster lifespan with oxaloacetate in fly food; format: in vivo; conditions: Example 4, 16 mM in water wetting the fly food, vs control
# Excerpt: The fruit fly Drosophila melanogaster (Vestigal type, from Carolina Biological Supply) was used as a test organism to assess the addition of oxaloacetate therapy (from Sigma Aldrich Company) applied to the cells to extend lifespan and to act as a caloric restriction “mimic”. The fruit fly is more complex than C. elegans, but the metabolic pathways that involve calorie restriction are a basic building block of life, and are conserved throughout the animal kingdom. […] A small amount of yeast was added on top of the fly food. […] The flies were kept in a room receiving reflected natural sunlight at a temperature of 21° C. Each of the flies used emerged from the pupae state within 8 hours of each other. The day the flies were moved to the test vials was designated “day 0”, reflecting the emergence of the fly into adulthood. The flies were kept out of direct sunlight and were raised at a temperature of 21° C. The food vials were prepared every 3 to 4 days and the flies transferred to prevent infestation of mites and other pathogenic microbial organisms. The vials with the flies were counted every day to determine the number of dead vs. living. Flies were scored as dead when they no longer respond to a gentle prodding with a probe. Lifespan is defined as the time elapsed from when the flies enter into adulthood (lifespan=0) to when they are scored as dead. […]
# C57Bl/6 mice = assay: Lifespan and health of C57Bl/6 mice fed oxaloacetate; format: in vivo; conditions: 0.4% in food by weight, at the 21st month of life, still continuing
# [5] = tested on: C. elegans (N2 wild type); assay: C. elegans lifespan on oxaloacetate-containing nematode growth agar; format: in vivo, Caenorhabditis elegans
# Protocol: A similar set of eight control plates with the same nematode growth agar was also prepared. […] In addition, five “starter plates” were made using nematode growth agar and no 5′flurodeoxyuridine. All plates were streaked with 0.5 ml bacteria Luria broth containing E. coli as a food source for the nematodes. The bacteria were allowed to grow on the plates for several days at 37° C. prior to adding C. elegans. Ten C. elegans nematodes were transferred to each of five “starter plates” and were left on the plates for 12 hours to lay eggs. The C. elegans were then removed and the eggs were allowed to grow into young adults for two days. Ten nematodes were then transferred to each control plate and oxaloacetate plate by “picking” worms with a microprobe from the starter plate and moving it onto the target test plates. The day after the starter plates have been started with the 10 C. elegans was designated “day 0”, and was the estimated time of birth. The C. elegans were kept out of direct sunlight and were raised at a temperature of 21° C. The plates with the C. elegans were counted every day to determine the number of dead nematodes. Nematodes were scored as dead when they no longer respond to a gentle prodding with a probe. Lifespan is defined as the time elapsed from when the nematodes are hatched (lifespan=0) to when they are scored as dead. Nematodes that crawl off the plates or are otherwise lost during the assay have been excluded from calculations. The dead nematodes were removed from the plates each day with microprobe. The total population is the sum of all found dead worms. The counting of the nematodes was continued until all nematodes were dead. The data was then charted and is represented in FIG. 2. […] The highest increase in lifespan was at 16 mM (approximate 25%) for the concentrations tested, and the lowest increase was a 2 mM (approximately 10%). […] Splitomycin is a selective inhibitor for the Sir2 gene (Sir2a in yeast, Sirt1 in humnans).
# [6] = tested on: liver tissue gene expression; assay: Liver gene expression, Affymatrix Mouse Genome 430 2.0 Array, oxaloacetate and CR mice versus control mice; format: in vivo, C57Bl/6 mice; conditions: for common genes changed in same direction as calorie restriction: of the 363 common genes
# Excerpt: Three mice of each of the three groups of the C57Bl/6 mice of Example 6 were sacrificed after 21 weeks. […] Because each group was a pooling of three mice, there are a variety of individual responses. Changes in the physical results of the group (such as weight loss, increase in health span, and increase in life span) are due to genes expressed in common by the group, not in individual variation. Thus it is important to look at the genes that changed in expression from the control group, but are commonly expressed between the calorie restricted group and the oxaloacetate supplemented group.
# [7] = Weight gain of older (9 month) C57Bl/6 mice fed oxaloacetate; format: in vivo, C57Bl/6 type male mice; conditions: 0.4% oxaloacetate in the food, eating freely, 9 month old mice
# Excerpt: C57Bl/6 type male mice approximately 9 months of age were obtained from Harlan, San Diego, Calif. as retired breeders. These mice were all born on the same day. The C57Bl/6 type mouse is inbred to reduce the genetic variation between individuals. The mice were housed in individual cages and were provided with ad libitum amounts of fortified food pellets (Kadee). The amount of food consumed was weighed daily, while the mice were weighed weekly. After two weeks, a baseline of the average food consumed by the mice was established at 7.1 grams per mouse per day. In addition, after an overnight fast, blood glucose readings for each mouse were recorded for each mouse. […] Male C57Bl/6 type mice, when allowed to eat freely, gain weight with age in a linear fashion. The mice were weighed weekly for 21 weeks, and the individual weights were recorded and averaged to form a “group average” for each of the three groups.
# Sir2 or SIRT1 = conditions: cited from earlier work
# [8] = count of genes among those shown to change commonly
smiles,measurement,setting,value
O=C(O)CC(=O)C(=O)O [oxaloacetate],toxicity,[1],negative toxicity
same,LD50,[2],above 5 g/kg of body weight
same,side effects,[3],no negative side effects
same,maximal increase in lifespan,Drosophila melanogaster,30%
same,increase in average lifespan,[4],20%
same,increase in lifespan over control group,C57Bl/6 mice,≥ 10%
same,increase in maximal life span,"[5]; Example 1, 16 mM in nematode growth agar, vs control plates",40%
same,increase in average lifespan,"[5]; Example 1, 16 mM in nematode growth agar, vs control plates, 21° C.",23.6%
same,increase in lifespan,"[5]; Example 2, 2 mM in agar (lowest increase)",approximately 10%
same,increase in lifespan,"[5]; Example 2, 16 mM in agar (highest increase)",~25%
same,percentage of common changed genes moving in same direction as calorie restriction,"[6]; 363 common genes, liver, Table 1",98%
same,"Gene Movement in Same Direction?, Cyp2b9","[6]; Affymatrix No. 3985, OX versus CR, both to control",YES
same,"Gene Movement in Same Direction?, similar to cytochrome P450 2B4-rat (LOC232993)","[6]; Affymatrix No. 17655, OX versus CR, both to control",YES
same,Percentage of Genes Moving in Same Direction as Calorie Restricted Mice,"[6]; Table 2, 1.7 fold cut off",100.0%
same,Mice Fed Oxaloacetate with Genes Moving in Opposite Direction as Calorie Restricted Mice,[6]; [8],7
same,Mice Fed Oxaloacetate with Genes Moving in Same Direction as Calorie Restricted Mice,[6]; [8],356
same,Percentage of Mice Fed Oxaloacetate with Genes Moving in Same Direction as Calorie Restricted Mice,[6]; genes shown to change commonly,98.1%
same,common genes changed in same direction as calorie restriction,[6]; liver,357 genes
same,common genes changed in same direction as calorie restriction,"[6]; liver, listed as Oxaloacetate",356 genes
same,genes with measurable change in expression versus control,"[6]; pooled liver of three mice, 21 weeks",765 genes
same,genes changed in common with calorie restricted mice versus control,"[6]; pooled liver, 21 weeks",363 genes
same,less weight gained than control group,[7],20%
"O=C1CCc2c(ccc3ccccc23)O1 [splitomycin, reference compound]",lifespan compared with control group,"[5]; Example 3, FIG. 3, inhibited Sir2 function, no oxaloacetate",lived for shorter periods than the control group
CC=O [acetaldehyde],activity of beneficial genes,Sir2 or SIRT1,did not see any increase in the activity of beneficial genes
